# Data published in patent publication US20080311126A1, “Antisense Oligonucleotides Directed to Ribonucleotide Reducatase R2 and Uses Thereof in Combination Therapies for the Treatment of Cancer” (Genesense Technologies, Inc, priority 2004, published 2008).
# “Also recorded” adds a separate entry of the source.
# Tests used:
# [1] = tested on: Human Glioblastoma-Astrocytoma; assay: Tumour growth assay, human glioblastoma-astrocytoma in mice; type: in vivo
# [2] = tested on: Burkitt's Lymphoma; assay: Survival assay, Burkitt's lymphoma in mice; type: in vivo, human
# Description: For the study of the effect of the compositions on leukaemias, the animals are grafted with a particular number of cells, and the anti-tumour activity is determined by the increase in the survival time of the treated mice relative to the controls.
# [3] = tested on: Human taxol-resistant promyelocytic leukaemia cells (HL-60); assay: HL-60 taxol-resistant promyelocytic leukaemia xenograft in SCID mice; type: in vivo
# Description: Human taxol-resistant promyelocytic leukaemia cells (HL-60) (7×10^6 cells in 100 μl of PBS) were injected into the right flank of 6-7 weeks old female SCID mice. After the size of tumour reached an approximate volume of 100 mm^3, 10 days post tumour cell injection, SEQ ID NO:1 was administered by bolus infusion into the tail vein every other day at 10 mg/kg. Control animals received saline alone for the same period. The anti-tumour effect of SEQ ID NO:1 was further compared to that of taxol. Taxol was administered i.p. once a week at a dose of 10 mg/kg. Anti-tumour activity was estimated by the inhibition of tumour volume, which was measured with caliper. Each point represents mean tumour volume calculated from 10 animals per experimental group. In addition animals were sacrificed and tumour weights taken at the end of the study.
# [4] = tested on: LS513 multi-drug resistant colon carcinoma cells; assay: LS513 multi-drug resistant colon carcinoma xenograft in SCID mice; type: in vivo, human
# Description: LSS13 multi-drug resistant colon carcinoma cells (1×10^7 cells in 100 μl of PBS) were subcutaneously injected into the right flank of 6-7 weeks old female SCID mice. After the size of tumour reached an approximate volume of […], 8 days post tumour cell injection, SEQ ID NO:1 was administered by bolus infusion into the tail vein every other day at 10 mg/kg. Control animals received saline alone for the same period. Antitumour effect of SEQ ID NO:1 was further compared to that of CPT-11 alone or in combination. CPT-11 was administered i.p. for 5 days at a dose of 20 mg/kg/day. Antitumour activities were estimated by the inhibition of tumour volume, which was measured with caliper. Each point represents mean tumour volume calculated from 10 animals per experimental group. Tumour weights were measured after animals were sacrificed at the end of the treatment. These cells are not resistant to CPT-11 which was used as a positive control.
# [5] = tested on: Mouse Fibrosarcoma; assay: Tumour growth assay, mouse fibrosarcoma in C3H mice; type: in vivo
sequence,measurement,setting,value
"GGCTAAATCGCTCCACCAAG (chemistry not given here) [SEQ ID NO: 1, antisense oligonucleotide that hybridizes to the coding region of human ribonucleotide reductase R2 mRNA]",Inhibition of tumour weight,[1],approximately 65%
same,effect of treatment on survival,[2]; first entry,Treatment prolonged survival
same,survival of treated mice,"[2]; first entry, untreated died by day 23, one treated mouse died at day 69",Treated mice survived beyond day 73
same,effect of treatment on survival,[2]; second entry,Treatment prolonged survival
same,survival of all treated mice (end of the experimental period),"[2]; second entry, untreated died by day 20",the experimental period (140 days)
same,Tumour weight as % of saline control,"[3]; HL-60 (leukemia), Taxol resistance, SCID",38%
same,"anti-tumour effect (tumour volume, tumour weight)","[3]; SEQ ID NO:1 10 mg/kg every other day, Taxol 10 mg/kg i.p. weekly",significant reduction of tumour weight
same,Tumour weight as % of saline control,"[4]; LS513 (colon) multi-drug resistant (CPT-11 sensitive), SCID",49%
same,"antitumour effect (tumour volume, tumour weight)","[4]; SEQ ID NO:1 10 mg/kg every other day, CPT-11 20 mg/kg/day i.p. 5 days",significant delay of tumour growth; also recorded: as effective as CPT-11
same,Inhibition of tumour volume,"[5]; C3H mice, Day 15 after tumour implantation",mice by approximately 80% on Day 15
same,dose dependence of decrease in tumour weight,"[5]; C3H mice, doses of 0.5 to 30 mg/kg",Dose-dependent decrease in tumour
same,Inhibition of tumour weight,[5]; Mouse Fibrosarcoma,approximately 80%
